Activity calls are given as the source filed them. The rule behind the calls is not given here.
Tested on: CCRIS mutagenicity, Ames/micronucleus/aberration tests
Assay: CCRIS mutagenicity studies
[1] = Test System: AMES SALMONELLA TYPHIMURIUM, Strain/Indicator: TA98, Metabolic Activation: NONE, Method: PREINCUBATION
[2] = Test System: AMES SALMONELLA TYPHIMURIUM, Strain/Indicator: TA100, Metabolic Activation: NONE, Method: PREINCUBATION
[3] = Test System: AMES SALMONELLA TYPHIMURIUM, Strain/Indicator: TA1535, Metabolic Activation: NONE, Method: PREINCUBATION
[4] = Test System: AMES SALMONELLA TYPHIMURIUM, Strain/Indicator: TA1537, Metabolic Activation: NONE, Method: PREINCUBATION
[5] = Test System: AMES SALMONELLA TYPHIMURIUM, Strain/Indicator: TA100, Metabolic Activation: NONE, Method: STANDARD PLATE

For `CC(O)CN(CC(C)O)CC(C)O` (stereo unspecified) (tested in a mixture with another compound), the mutagenic call [1] was “inactive; negative”, the mutagenic call (Test System: AMES SALMONELLA TYPHIMURIUM, Strain/Indicator: TA98, Metabolic Activation: RAT LIVER S-9, AROCLOR 1254, 10%, Method: PREINCUBATION) was “inactive; negative” and the mutagenic call [2] was “inactive; negative”. The mutagenic call (Test System: AMES SALMONELLA TYPHIMURIUM, Strain/Indicator: TA100, Metabolic Activation: RAT LIVER S-9, AROCLOR 1254, 10%, Method: PREINCUBATION) was “inactive; negative”, the mutagenic call [3] was “inactive; negative” and the mutagenic call (Test System: AMES SALMONELLA TYPHIMURIUM, Strain/Indicator: TA1535, Metabolic Activation: RAT LIVER S-9, AROCLOR 1254, 10%, Method: PREINCUBATION) was “inactive; negative”. The mutagenic call [4] was “inactive; negative”, the mutagenic call (Test System: AMES SALMONELLA TYPHIMURIUM, Strain/Indicator: TA1537, Metabolic Activation: RAT LIVER S-9, AROCLOR 1254, 10%, Method: PREINCUBATION) was “inactive; negative” and the mutagenic call (Test System: UDS RAT HEPATOCYTES, Strain/Indicator: THYMIDINE INCORPORATION, Metabolic Activation: NONE, Method: AUTORADIOGRAPHY) was “inactive; negative”.

For `C/C=C/C1=CC(=O)[C@]23C[C@H]2C(C)(C)O[C@]3(O)C1=O`, the mutagenic call (Test System: AMES SALMONELLA TYPHIMURIUM, Strain/Indicator: TA97, Metabolic Activation: NONE) was “active; positive”, the mutagenic call (Test System: AMES SALMONELLA TYPHIMURIUM, Strain/Indicator: TA98, Metabolic Activation: NONE) was “inactive; negative” and the mutagenic call (Test System: AMES SALMONELLA TYPHIMURIUM, Strain/Indicator: TA100, Metabolic Activation: NONE) was “active; positive”. The mutagenic call (Test System: AMES SALMONELLA TYPHIMURIUM, Strain/Indicator: TA102, Metabolic Activation: NONE) was “active; positive”.

With `Nc1nc(=O)n([C@H]2C[C@H](O)[C@@H](CO)O2)cc1CCCl` the mutagenic call (Test System: AMES SALMONELLA TYPHIMURIUM, Strain/Indicator: TA97, Metabolic Activation: NONE, Method: PREINCUBATION) was “inactive; negative”, the mutagenic call (Test System: AMES SALMONELLA TYPHIMURIUM, Strain/Indicator: TA97, Metabolic Activation: RAT, LIVER, S-9, AROCLOR 1254, Method: PREINCUBATION) was “inactive; negative” and the mutagenic call [1] was “inactive; negative”. The mutagenic call (Test System: AMES SALMONELLA TYPHIMURIUM, Strain/Indicator: TA98, Metabolic Activation: RAT, LIVER, S-9, AROCLOR 1254, Method: PREINCUBATION) was “inactive; negative”, the mutagenic call [2] was “inactive; negative” and the mutagenic call (Test System: AMES SALMONELLA TYPHIMURIUM, Strain/Indicator: TA100, Metabolic Activation: RAT, LIVER, S-9, AROCLOR 1254, Method: PREINCUBATION) was “inactive; negative”. The mutagenic call (Test System: AMES SALMONELLA TYPHIMURIUM, Strain/Indicator: TA102, Metabolic Activation: NONE, Method: PREINCUBATION) was “inactive; negative”, the mutagenic call (Test System: AMES SALMONELLA TYPHIMURIUM, Strain/Indicator: TA102, Metabolic Activation: RAT, LIVER, S-9, AROCLOR 1254, Method: PREINCUBATION) was “inactive; negative” and the mutagenic call (Test System: AMES SALMONELLA TYPHIMURIUM, Strain/Indicator: TA104, Metabolic Activation: NONE, Method: PREINCUBATION) was “inactive; negative”. The mutagenic call (Test System: AMES SALMONELLA TYPHIMURIUM, Strain/Indicator: TA104, Metabolic Activation: RAT, LIVER, S-9, AROCLOR 1254, Method: PREINCUBATION) was “inactive; negative”, the mutagenic call [3] was “inactive; negative” and the mutagenic call (Test System: AMES SALMONELLA TYPHIMURIUM, Strain/Indicator: TA1535, Metabolic Activation: RAT, LIVER, S-9, AROCLOR 1254, Method: PREINCUBATION) was “inactive; negative”. The mutagenic call [4] was “inactive; negative”, the mutagenic call (Test System: AMES SALMONELLA TYPHIMURIUM, Strain/Indicator: TA1537, Metabolic Activation: RAT, LIVER, S-9, AROCLOR 1254, Method: PREINCUBATION) was “inactive; negative” and the mutagenic call (Test System: AMES SALMONELLA TYPHIMURIUM, Strain/Indicator: TA1538, Metabolic Activation: NONE, Method: PREINCUBATION) was “inactive; negative”. The mutagenic call (Test System: AMES SALMONELLA TYPHIMURIUM, Strain/Indicator: TA1538, Metabolic Activation: RAT, LIVER, S-9, AROCLOR 1254, Method: PREINCUBATION) was “inactive; negative” and the mutagenic call (Test System: CHINESE HAMSTER V-79, Strain/Indicator: V-79/8-AZAGUANINE, Metabolic Activation: NONE) was “inactive; negative”.

In the case of `Oc1cccc2ccc3[nH]c4ccc5ccccc5c4c3c12`, the mutagenic call (Test System: AMES SALMONELLA TYPHIMURIUM, Strain/Indicator: TM677, Metabolic Activation: NONE, Method: PREINCUBATION) is reported as “inactive; negative”, the mutagenic call (Test System: AMES SALMONELLA TYPHIMURIUM, Strain/Indicator: TM677, Metabolic Activation: RAT, LIVER, S-9, 3-METHYLCHOLANTHRENE (1%), Method: PREINCUBATION) is reported as “inactive; negative” and the mutagenic call (Test System: AMES SALMONELLA TYPHIMURIUM, Strain/Indicator: TM677, Metabolic Activation: RAT, LIVER, S-9, 3-METHYLCHOLANTHRENE (10%), Method: PREINCUBATION) is reported as “inactive; negative”. The mutagenic call (Test System: AMES SALMONELLA TYPHIMURIUM, Strain/Indicator: TM677, Metabolic Activation: RAT, LIVER, S-9, AROCLOR 1254 (10%), Method: PREINCUBATION) was “inactive; negative”.

For `Nc1cc([N+](=O)[O-])ccc1-c1ccc([N+](=O)[O-])cc1`, the mutagenic call [1] was “active; positive”, the mutagenic call (Test System: AMES SALMONELLA TYPHIMURIUM, Strain/Indicator: TA98, Metabolic Activation: RAT LIVER S-9, AROCLOR 1254, Method: PREINCUBATION) was “active; positive” and the mutagenic call [2] was “active; positive”. For the same compound, the mutagenic call [5] was “active; positive”, the mutagenic call (Test System: AMES SALMONELLA TYPHIMURIUM, Strain/Indicator: TA100, Metabolic Activation: RAT LIVER S-9, AROCLOR 1254, Method: PREINCUBATION) was “active; positive” and the mutagenic call (Test System: AMES SALMONELLA TYPHIMURIUM, Strain/Indicator: TA104, Metabolic Activation: NONE, Method: STANDARD PLATE) was “active; positive”. The mutagenic call (Test System: AMES SALMONELLA TYPHIMURIUM, Strain/Indicator: TA4001, Metabolic Activation: NONE, Method: STANDARD PLATE) was “inactive; negative”, the mutagenic call (Test System: AMES SALMONELLA TYPHIMURIUM, Strain/Indicator: TA4006, Metabolic Activation: NONE, Method: STANDARD PLATE) was “active; positive” and the mutagenic call (Test System: AMES SALMONELLA TYPHIMURIUM, Strain/Indicator: TA7002, Metabolic Activation: NONE, Method: STANDARD PLATE) was “active; positive”. The mutagenic call (Test System: AMES SALMONELLA TYPHIMURIUM, Strain/Indicator: TA7002, Metabolic Activation: RAT LIVER S-9, AROCLOR 1254, Method: STANDARD PLATE) was “active; positive”, the mutagenic call (Test System: AMES SALMONELLA TYPHIMURIUM, Strain/Indicator: TA7003, Metabolic Activation: NONE, Method: STANDARD PLATE) was “active; positive” and the mutagenic call (Test System: AMES SALMONELLA TYPHIMURIUM, Strain/Indicator: TA7003, Metabolic Activation: RAT LIVER S-9, AROCLOR 1254, Method: STANDARD PLATE) was “active; positive”. The mutagenic call (Test System: AMES SALMONELLA TYPHIMURIUM, Strain/Indicator: TA7004, Metabolic Activation: NONE, Method: STANDARD PLATE) was “active; positive”, the mutagenic call (Test System: AMES SALMONELLA TYPHIMURIUM, Strain/Indicator: TA7004, Metabolic Activation: RAT LIVER S-9, AROCLOR 1254, Method: STANDARD PLATE) was “active; positive” and the mutagenic call (Test System: AMES SALMONELLA TYPHIMURIUM, Strain/Indicator: TA7005, Metabolic Activation: NONE, Method: STANDARD PLATE) was “active; positive”. For the same compound, the mutagenic call (Test System: AMES SALMONELLA TYPHIMURIUM, Strain/Indicator: TA7005, Metabolic Activation: RAT LIVER S-9, AROCLOR 1254, Method: STANDARD PLATE) was “active; positive”, the mutagenic call (Test System: AMES SALMONELLA TYPHIMURIUM, Strain/Indicator: TA7006, Metabolic Activation: NONE, Method: STANDARD PLATE) was “active; positive” and the mutagenic call (Test System: AMES SALMONELLA TYPHIMURIUM, Strain/Indicator: TA7006, Metabolic Activation: RAT LIVER S-9, AROCLOR 1254, Method: STANDARD PLATE) was “active; positive”. The mutagenic call (Test System: Ames Salmonella typhimurium, Strain/Indicator: TA102, Metabolic Activation: None, Method: Preincubation) was “active; positive” and the mutagenic call (Test System: Ames Salmonella typhimurium, Strain/Indicator: TA102, Metabolic Activation: Rat, liver, S-9, Aroclor 1254 (4%), Method: Preincubation) was “inactive; negative”.

For `Nc1nc(Cl)c2[nH]cnc2n1`, the mutagenic call [5] was “active; positive”.

With `CCC(=O)N=c1sn(C(=O)CC)c2ccc([N+](=O)[O-])cc12` the mutagenic call (Test System: AMES SALMONELLA TYPHIMURIUM, Strain/Indicator: TA100, Metabolic Activation: S-9, Method: STANDARD PLATE) was “active; positive”.
